{
  "source": "patent US20080015223A1",
  "about": "“Pyrazole Derivatives as Modulators of the 5-Ht2a Serotonin Receptor Useful for the Treatment of Disorders Related Thereto” (Arena Pharmaceuticals, Inc., priority 2004, published 2008)",
  "origin": "cited, not measured here",
  "key": {"[1]": {"test_system": "rats"}, "[2]": {"test_system": "JC virus"}, "[3]": {"test_system": "spontaneously hypertensive rats"}, "[4]": {"conditions": "24 months of treatment, patients"}, "[5]": {"conditions": "glaucoma patients"}, "[6]": {"test_system": "rats", "remark": "listed apart in the source"}, "[7]": {"conditions": "humans, lumbar disc herniation"}},
  "data": [
    {"smiles": "CN1CCN2c3ccccc3Cc3ccccc3C2C1", "note": "(stereo not drawn) [Mainserin]", "values": [
      {"measurement": "DOCA-salt induced hypertension", "setting": "[1]", "value": "prevent"}
    ]},
    {"smiles": "O=C(c1ccc(F)cc1)C1CCN(CCn2c(=O)[nH]c3ccccc3c2=O)CC1", "note": "[ketanserin]", "values": [
      {"measurement": "JC virus infection of human glial cells", "setting": "[2]", "value": "inhibited"},
      {"measurement": "blood pressure", "setting": "[3]", "value": "stabilize"}
    ]},
    {"smiles": "Cc1nc2sccn2c(=O)c1CCN1CCC(=C(c2ccc(F)cc2)c2ccc(F)cc2)CC1", "note": "[ritanserin]", "values": [
      {"measurement": "JC virus infection of human glial cells", "setting": "[2]", "value": "inhibited"}
    ]},
    {"smiles": "COc1cccc(CCc2ccccc2OCC(CN(C)C)OC(=O)CCC(=O)O)c1", "note": "(stereo not drawn) [sarpogrelate]", "values": [
      {"measurement": "urinary albumin excretion level", "setting": "[4]", "value": "significantly reduced"},
      {"measurement": "IOP", "setting": "[5]", "value": "significantly lower"},
      {"measurement": "analgesic effect on thermal induced pain", "setting": "[6]; intraperitoneal administration", "value": "significant analgesic effect"},
      {"measurement": "analgesic effect on inflammatory pain", "setting": "[6]; intrathecal or intraperitoneal administration", "value": "significant analgesic effect"},
      {"measurement": "treatment for lower back pain, leg pain and numbness associated with sciatica", "setting": "[7]", "value": "effective treatment"}
    ]}
  ]
}
